# Assay results reported in patent US20080280879A1, “SUBSTITUTED HETEROCYCLIC DERIVATIVES AND THEIR PHARMACEUTICAL USE AND COMPOSITIONS” (priority 2007, published 2008).
# What was measured:
# Type in all cases: cell-based, Staphylococcus aureus
# Staph aureus 1146 [1] = assay: MIC, microtiter broth dilution (CLSI M7-A7), Assay 1, Table 12 column B, no serum; conditions: Staphylococcus aureus, 1146, Staph aureus 1146, Assay 1, no serum
# Method: (§1) The assays described herein include a panel of bacterial isolates of Staphylococcus aureus. Assay 1 comprises the strains noted in Columns A through E, and Assay 2 comprises the strains noted in Columns F through H. The assays are performed in microtiter trays according to Methods for Dilution Antimicrobial Susceptibility Tests for Bacteria that Grow Aerobically; Approved Standard-7th edition (M7-A7) and interpreted according to the Performance Standards for Antimicrobial Susceptibility Testing; 16th Informational Supplement (M100-S16) published by Clinical Laboratory Standards Institute (CLSI). The antibacterial activity is presented in the form of a minimum inhibitory concentration (MIC) value in μg/ml format. The MIC value represents the lowest concentration of drug measured which prevented macroscopically visible growth under the conditions and specific doses tested. The compounds were initially dissolved in DMSO as 30 mM stocks and diluted accordingly to adjust to a concentration of 10 mg/ml or the compounds were dissolved in DMSO at a concentration of 10 mg/ml. For assessment of activity in the presence of human serum, S. aureus 1146 and S. aureus 1031 were inoculated into Mueller-Hinton Broth with 50% pooled inactivated human serum. In some cases, compounds were tested more than once in a particular assay. Where noted, the MIC value shown in Table 12 represents the geometric mean of the data from multiple runs.
# (§2) It should be understood that the data in columns A-H represents MIC data in μg/ml and the notation “<=” means ‘less than or equal to’.
# Staph aureus 2812 = assay: MIC, microtiter broth dilution (CLSI M7-A7), Assay 1, Table 12 column E, no serum; conditions: Staphylococcus aureus, 2812, Staph aureus 2812, Assay 1, no serum
# Method: as §1, §2
# Staph aureus 2811 = assay: MIC, microtiter broth dilution (CLSI M7-A7), Assay 1, Table 12 column D, no serum; conditions: Staphylococcus aureus, 2811, Staph aureus 2811, Assay 1, no serum
# Method: as §1, §2
# Staph aureus 1146 [2] = assay: MIC in Mueller-Hinton Broth with 50% pooled inactivated human serum, Assay 1, Table 12; conditions: Staphylococcus aureus, 1146, Staph aureus 1146, Assay 1, 50% human serum; read-out: MIC, column C
# Method: as §1, §2
# Staph aureus 1095 MRSA = assay: MIC, microtiter broth dilution (CLSI M7-A7), Assay 1, Table 12 column A, no serum; conditions: Staphylococcus aureus, MRSA, Assay 1, no serum
# Method: as §1, §2
SMILES,MIC (Staph aureus 1146 [1]) [µg/mL],MIC (Staph aureus 2812) [µg/mL],MIC (Staph aureus 2811) [µg/mL],MIC (Staph aureus 1146 [2]) [µg/mL],MIC (Staph aureus 1095 MRSA) [µg/mL]
"COc1ccc2nccc(C(O)CC[C@@H]3CCN(C4CC(c5cccc(F)c5F)C4)C[C@@H]3C(=O)O)c2c1 (stereo partly drawn) [Example 36, (3R,4R)-1-[3-(2,3-difluorophenyl)cyclobutyl]-4-[3-hydroxy-3-(6-methoxyquinolin-4-yl)propyl] piperidine-3-carboxylic acid]",≤ 0.0625,≤ 0.0625,≤ 0.0625,2,0.125
"COc1ccc2nccc([C@@H](O)CC[C@@H]3CCN(C4CC(c5ccc(F)cc5F)C4)C[C@@H]3C(=O)O)c2c1 (stereo partly drawn) [Example 37, (3R,4R)-1-[3-(2,4-difluorophenyl)cyclobutyl]-4-[(3S)-3-hydroxy-3-(6-methoxyquinolin-4-yl)propyl] piperidine-3-carboxylic acid]",≤ 0.0625,0.25,≤ 0.0625,1,0.25
"COc1ccc2nccc([C@@H](O)CC[C@@H]3CCN(C4CC(c5cc(F)ccc5F)C4)C[C@@H]3C(=O)O)c2c1 (stereo partly drawn) [Example 40, (3R,4R)-1-[3-(2,5-difluorophenyl)cyclobutyl]-4-[(3S)-3-hydroxy-3-(6-methoxyquinolin-4-yl)propyl] piperidine-3-carboxylic acid]",≤ 0.0625,≤ 0.0625,≤ 0.0625,1.26,0.125
"COc1ccc2nccc([C@@H](O)CC[C@@H]3CCN(C4CC(c5ccc(-c6ccccc6)cc5)C4)C[C@@H]3C(=O)O)c2c1 (stereo partly drawn) [Example 41, (3R,4R)-1-(3-biphenyl-4-ylcyclobutyl)-4-[(3S)-3-hydroxy-3-(6-methoxyquinolin-4-yl)propyl] piperidine-3-carboxylic acid]",> 64,> 64,> 64,> 64,> 64
"COc1ccc2nccc(C(O)CC[C@@H]3CCN(C4CC(C)(c5ccccc5)C4)C[C@@H]3C(=O)O)c2c1 (stereo partly drawn) [Example 42, (3R,4R)-4-[3-hydroxy-3-(6-methoxyquinolin-4-yl)propyl]-1-(3-methyl-3-phenylcyclobutyl)piperidine-3-carboxylic acid]",> 64,32,> 64,32,> 64

# Other lines, results leading:
MIC (Staph aureus 1146 [1]) [µg/mL],MIC (Staph aureus 2812) [µg/mL],MIC (Staph aureus 2811) [µg/mL],MIC (Staph aureus 1146 [2]) [µg/mL],MIC (Staph aureus 1095 MRSA) [µg/mL],SMILES
0.125,0.125,0.125,4,0.25,"COc1ccc2nccc(C(O)CC[C@@H]3CCN(C4CC(c5cc(F)ccc5F)C4)C[C@@H]3C(=O)O)c2c1 (stereo partly drawn) [Example 38, (3R,4R)-1-[3-(2,5-difluorophenyl)cyclobutyl]-4-[3-hydroxy-3-(6-methoxyquinolin-4-yl)propyl] piperidine-3-carboxylic acid]"
≤ 0.0625,≤ 0.0625,0.25,1,≤ 0.125,"COc1ccc2ncc(F)c(C(O)CC[C@@H]3CCN(C4CC(c5cc(F)ccc5F)C4)C[C@@H]3C(=O)O)c2c1 (stereo partly drawn) [Example 39, (3R,4R)-1-[3-(2,5-difluorophenyl)cyclobutyl]-4-[3-(3-fluoro-6-methoxyquinolin-4-yl)-3-hydroxypropyl]piperidine-3-carboxylic acid]"
≤ 0.0625,≤ 0.0625,≤ 0.0625,0.5,0.25,"COc1ccc2nccc(C(O)CC[C@@H]3CCN(C4CC(c5ccccc5)C4C)C[C@@H]3C(=O)O)c2c1 (stereo partly drawn) [Example 43, (3R,4R)-4-[3-hydroxy-3-(6-methoxyquinolin-4-yl)propyl]-1-(2-methyl-3-phenylcyclobutyl)piperidine-3-carboxylic acid]"
0.25,0.125,0.125,2,0.5,"COc1ccc2nccc(C(O)CC[C@@H]3CCN(C4CC(C5CCCCC5)C4)C[C@@H]3C(=O)O)c2c1 (stereo partly drawn) [Example 44, (3R,4R)-1-(3-cyclohexylcyclobutyl)-4-[3-hydroxy-3-(6-methoxyquinolin-4-yl)propyl]piperidine-3-carboxylic acid]"
≤ 0.0884,≤ 0.0884,≤ 0.0884,0.353,≤ 0.125,"COc1ccc2nccc(C(O)CC[C@@H]3CCN(C4CC(C5CCCC5)C4)C[C@@H]3C(=O)O)c2c1 (stereo partly drawn) [Example 45, (3R,4R)-1-(3-cyclopentylcyclobutyl)-4-[3-hydroxy-3-(6-methoxyquinolin-4-yl)propyl]piperidine-3-carboxylic acid]"
